Laboratory results: patent US9539239B1, “Compositions and methods for treatment of neurodegenerative disease” (priority 2010, dated 2017)

What was measured:
[1] = system: retinal ganglion cells (RGCs); experiment: RGC survival in primary retinal ganglion cell culture (high-content screening); type: cell-based, mouse and rat; conditions: potency relative to sunitinib; baseline culture with 2.5 μM forskolin
Protocol: (§1) In this Example, certain compounds were administered to retinal ganglion cells (RGCs) in cell culture to determine the effects of the compounds on neuronal count and neurite growth.
We established a robust high-content screening system combining the immunopanning- or other immunobead-based purification of primary mouse and rat RGCs and automated fluorescence-based imaging analysis (see, e.g., U.S. Patent Publication No. 2007/0185069, incorporated herein by reference). To enhance the assay sensitivity, the culture condition is defined to support a baseline level of RGC viability (20˜60% surviving RGCs after three days in culture) and neurite growth by 2.5 μM forskolin. […]

[2] = system: retinal ganglion cells (RGCs); experiment: RGC neurite growth in primary retinal ganglion cell culture (high-content screening); type: cell-based, mouse and rat; conditions: potency relative to sunitinib; baseline culture with 2.5 μM forskolin
Protocol: as §1
We established a robust high-content screening system combining the immunopanning- or other immunobead-based purification of primary mouse and rat RGCs and automated fluorescence-based imaging analysis (see, e.g., U.S. Patent Publication No. 2007/0185069, incorporated herein by reference). To enhance the assay sensitivity, the culture condition is defined to support a baseline level of RGC viability (20˜60% surviving RGCs after three days in culture) and neurite growth by 2.5 μM forskolin.
In addition, certain tested compounds stimulated RGC neurite growth.

[3] = cited from earlier work
RGC = experiment: Effect of FLT3 ligand on RGC survival; type: cell-based

Molecule: Cc1c(/C=C2\C(=O)Nc3ccc(C(=O)N4CCCCCC4)cc32)[nH]c2c1C(=O)C(C)(C)CC2 [Example 12]
- RGC Survival Activity [1]: ** (approximately 40-80% as potent as sunitinib)

Molecule: CCN(CC)CCNC(=O)c1c(C)[nH]c(/C=C2\C(=O)Nc3ccc([S+](C)[O-])cc32)c1C (centres unmarked) [Example 17]
- Neurite Promotion [2]: *** (at least approximately 80% as potent as sunitinib)
- RGC Survival Activity [1]: *** (at least approximately 80% as potent as sunitinib)

Molecule: CCN(CC)CCNC(=O)c1c(C)[nH]c(/C=C2\C(=O)Nc3ccc([S+](C)[O-])cc32)c1C (centres unmarked) [Example 18]
- Neurite Promotion [2]: *** (at least approximately 80% as potent as sunitinib)
- RGC Survival Activity [1]: *** (at least approximately 80% as potent as sunitinib)

Molecule: Cc1c(/C=C2\C(=O)Nc3ccc(C(=O)N(C)C)cc32)[nH]c2c1C(=O)C(C)(C)CC2 [Example 16]
- RGC Survival Activity [1]: *** (at least approximately 80% as potent as sunitinib)

Molecule: C[S+]([O-])c1ccc2c(c1)/C(=C/c1cc3c([nH]1)CCCC3=O)C(=O)N2 (centres unmarked) [Example 3]
- RGC Survival Activity [1]: *** (at least approximately 80% as potent as sunitinib)

Molecule: CC[S+]([O-])c1ccc2c(c1)/C(=C/c1cc3c([nH]1)CCCC3)C(=O)N2 (centres unmarked) [Example 7]
- RGC Survival Activity [1]: *** (at least approximately 80% as potent as sunitinib)

Molecule: CCN(CC)CCNC(=O)c1c(C)[nH]c(/C=C2\C(=O)Nc3ccc([S+]([O-])CC)cc32)c1C (centres unmarked) [Example 19]
- RGC Survival Activity [1]: *** (at least approximately 80% as potent as sunitinib)

Molecule: Cc1c(/C=C2\C(=O)Nc3ccc(C(=O)N4CCCC4)cc32)[nH]c2c1C(=O)C(C)(C)CC2 [Example 13]
- RGC Survival Activity [1]: *** (at least approximately 80% as potent as sunitinib)

Molecule: CCN(C)C(=O)c1ccc2c(c1)/C(=C/c1[nH]c3c(c1C)C(=O)C(C)(C)CC3)C(=O)N2 [Example 10]
- RGC Survival Activity [1]: *** (at least approximately 80% as potent as sunitinib)

Molecule: Cc1[nH]c(/C=C2\C(=O)Nc3ccc([S+](C)[O-])cc32)c(C)c1C(=O)N1CCOCC1 (centres unmarked)
- RGC Survival Activity [1]: ** (approximately 40-80% as potent as sunitinib)

Molecule: CN(C)C(=O)c1ccc2c(c1)/C(=C/c1cc3c([nH]1)CCCC3=O)C(=O)N2 [Example 14]
- RGC Survival Activity [1]: *** (at least approximately 80% as potent as sunitinib)

Molecule: C[S+]([O-])c1ccc2c(c1)/C(=C/c1cc3c([nH]1)CCCC3)C(=O)N2 (centres unmarked) [Example 6]
- RGC Survival Activity [1]: *** (at least approximately 80% as potent as sunitinib)

Molecule: CN(C)C(=O)c1ccc2c(c1)/C(=C/c1cc3c([nH]1)CC(C)(C)CC3=O)C(=O)N2 [Example 15]
- RGC Survival Activity [1]: ** (approximately 40-80% as potent as sunitinib)

Molecule: Cc1[nH]c(/C=C2\C(=O)Nc3ccc([S+](C)[O-])cc32)c(C)c1C(=O)N1CCN(C)CC1 (centres unmarked)
- RGC Survival Activity [1]: * (approximately 10-40% as potent as sunitinib)

Molecule: C[S+]([O-])c1ccc2c(c1)/C(=C/c1cc3c([nH]1)CC(C)(C)CC3=O)C(=O)N2 (centres unmarked) [Example 2]
- RGC Survival Activity [1]: *** (at least approximately 80% as potent as sunitinib)

Molecule: CCN(CC)CCNC(=O)c1c(C)[nH]c(/C=C2\C(=O)Nc3ccc(C(=O)N(C)C)cc32)c1C [Example 26]
- RGC Survival Activity [1]: *** (at least approximately 80% as potent as sunitinib)

Molecule: Cc1[nH]c(/C=C2\C(=O)Nc3ccc(C(=O)N(C)C)cc32)c(C)c1C(=O)NCCN1CCCC1 [Example 25]
- RGC Survival Activity [1]: *** (at least approximately 80% as potent as sunitinib)

Molecule: CCN(CC)CCNC(=O)c1c(C)[nH]c(/C=C2\C(=O)Nc3ccc(C(=O)N4CCCC4)cc32)c1C [Example 23]
- RGC Survival Activity [1]: *** (at least approximately 80% as potent as sunitinib)

Molecule: Cc1c(/C=C2\C(=O)Nc3ccc(C(=O)N(C)C)cc32)[nH]c2c1CC(C)(C)CC2 [Example 8]
- RGC Survival Activity [1]: ** (approximately 40-80% as potent as sunitinib)

Molecule: CON(C)C(=O)c1ccc2c(c1)/C(=C/c1[nH]c3c(c1C)C(=O)C(C)(C)CC3)C(=O)N2 [Example 9]
- RGC Survival Activity [1]: *** (at least approximately 80% as potent as sunitinib)

Molecule: CCCCN(C)C(=O)c1ccc2c(c1)/C(=C/c1[nH]c3c(c1C)C(=O)C(C)(C)CC3)C(=O)N2 [Example 11]
- RGC Survival Activity [1]: ** (approximately 40-80% as potent as sunitinib)

Molecule: CCN(CC)CCNC(=O)c1c(C)[nH]c(/C=C2\C(=O)Nc3ccc(C(=O)N(C)OC)cc32)c1C [Example 24]
- RGC Survival Activity [1]: *** (at least approximately 80% as potent as sunitinib)

Molecule: Cc1c([S+](C)[O-])ccc2c1/C(=C/c1cc3c([nH]1)CCCC3)C(=O)N2 (centres unmarked) [Example 5]
- Neurite Promotion [2]: ** (approximately 40-80% as potent as sunitinib)
- RGC Survival Activity [1]: * (approximately 10-40% as potent as sunitinib)

B1: FLT3 ligand: RTK ligand; ligand of the receptor tyrosine kinase FLT3 (protein, UniProt P49771 27-235, looked up)
Fms-related tyrosine kinase 3 …: TQDCSFQHSPISSDFAVKIRELSDYLLQDYPVTVASNLQDEELCGGLWRLVLAQRWMERLKTVAGSKMQGLLERVNTEIHFVTKCAFQPPPSCLRFVQTNISRLLQETSEQLVALKPWITRQNFSRCLELQCQPDSSTLPPPWSPRPLEATAPTAPQPPLLLLLLLPVGLLLLAAAWCLHWQRTRRRTPRPGEQVPPVPSPQDLLLVEH
- EC50 [3]: 4 ng/mL
- reduction of RGC survival (RGC; 4 ng/ml (its EC50)): does not do so
- reduction of RGC survival (RGC; 16 ng/ml, four times its EC50): 38.3%
